* marks the point of attachment. Cbz = O=C(OCc1ccccc1)*; CH2F = FC*
Tests used:
[1] = test system: IL-1β secretion; test: IL-1β secretion by LPS-primed, stimulated WT and TORID KO BMDCs (ELISA); type: cell-based, mouse; settings: for IL-1β secretion: WT and TORID KO BMDCs primed with LPS, stimulated with ATP
Protocol: The study shown in FIG. 8 was performed by priming WT and TORID KO mice bone marrow-derived dendritic cells (BMDCs) with 0.25 μg/mL lipopolysaccharide (LPS) for four hours. The BMDCs were then washed and treated with different doses of ATP, Nigericin, and aluminum for 45 minutes as shown in the left column of bar graphs. Alternatively, 0.5 mg/mL ATP, 2.5 μg/mL Nigericin, or 500 μg/mL aluminum were used at different time points as indicated in the right column of bar graphs. IL-1β was quantified by ELISA in the culture supernatant.
The experiment was performed on wildtype and TORID KO mice BMDCs primed with LPS for 3 hours. The BMDCs were subsequently treated with nigericin, ATP, or aluminum for 45 minutes. […] Caspase 1 activation was quantified by FACS using Flica 1 reagent. […] Z-WEHD-FMK was used as the caspase 1 inhibitor, and IL-1β levels were quantified by ELISA in the supernatant of the cell culture stimulated with the indicated compounds.
Inflammasome activation is also associated with an increase of cytosolic Ca^2+. […] Data in this study was generated by loading Ca^2+ sensitive probe Fura-2 in wild type and TORID KO mice BMDCs after priming the BMDCs for three hours with LPS. The cells were exposed to 0.5 mM ATP to elicit inflammasome activation. The cells were excited with a UV laser at 350 nm. Absorbance at 340 nm and 380 nm were recorded in a time lapse manner. As shown in the top illustrations, the TORID KO BMDCs show a higher level of cytosolic Ca^2+. Moreover, IL-1β levels were higher with the TORID KO BMDCs. BAPTA-AM was used to chelate cytosolic Ca^2+.
Potassium (K^+) efflux is also linked to inflammasome activation. In the study shown in FIG. 11, IL-1β synthesis resulting from K^+ was tested. This study was performed on wild type and TORID KO mouse BMDCs treated with LPS and ATP as in the previously described studies herein. Culture medium was replaced by saline buffer containing normal low levels of K^+ (5 mM, K+) or high levels of K^+ (120 mM; K+++). IL-1β was quantified by ELISA in the culture supernatant. As shown in the top graph of FIG. 11, IL-1β levels were higher in the TORID KO mice. […] The results therefore support pharmacological use of TIs to promote inflammasome activation by triggering Ca^2+-activated K^+ channels.

[2] = test system: TORID; test: TORID activity by ANG-2 probe fluorescence (flow cytometry) in transfected CHO cells; type: cell-based
Protocol: As shown in FIG. 14 Chinese hamster ovarian (CHO) cells were transfected with TORID and Tmem176a and incubated for 24 hours. The cells were subsequently loaded with ANG-2 probe for 30 min RT, washed, and then incubated with (+)-BAY […] or (i)-BAY […] for 30 min. The cells were then analyzed by flow cytometry to evaluate TORID activity. Activity was measured by comparing fluorescence of the ANG-2 probe in TORID+ cells incubated with BAY […] (blue) to the control (red). TORID activity measure as the ANG-2 mean fluorescent intensity (MFI) in normal medium 0(-), 5(+), or 10(++) uM. […] FIG. 15 illustrates analysis of the ANG-2 mean fluorescent intensity (MFI) in normal medium of TORID exposed to BAY […] concentrations of 0 uM (-), 5 uM (+) or 10 uM (++). […] In all cases fluorescence intensity from ANG-2-loaded cells cultured in […] buffer was subtracted.

[3] = test system: EG7.OVA cancer cells; test: EG7.OVA tumor-bearing wild type mice treated with BAY K8644; type: in vivo; settings: EG7.OVA s.c., i.p. daily day 3 to day 15, vs control vehicle
Protocol: Data from in vivo studies depicted in FIG. 16 confirm the effect of pharmacologic inhibition of TORID on tumor growth. The study was performed on wild type mice injected subcutaneously with EG7.OVA cancer cells. Three days after inoculating the wild type mice with EG7.OVA tumor cells, Bay K8644 or a control vehicle, such as ethanol, were injected intraperitoneally daily up to the fifteenth day after tumor cell inoculation.

[4] = test system: EG7.OVA cells; test: EG7.OVA tumor in caspase 1/11 active and caspase 1/11 KO mice treated with BAY K8644; type: in vivo; settings: 4 mg/kg i.p. daily day 3 to day 15
Excerpt: FIG. 17 further confirms the results from FIG. 16 and the proposed mechanism depicted in FIG. 6. Data shown in FIG. 17 was gathered from caspase 1/11 active mice (1/11^+/+) and caspase 1/11 KO mice (1/11^−/−) injected with EG7.OVA cells.

[5] = test system: EG7 and MC38 tumors; test: Survival of mice with EG7 and MC38 tumors treated with anti-PD-1 alone or anti-PD-1+Bayk8644; type: in vivo; settings: anti-PD-1 resistant mice; two tumor types (EG7, MC38); anti-PD-1+BAY K8644 vs anti-PD-1 alone

## CCN(CCO)CCCC(C)Nc1ccnc2cc(Cl)ccc12 (stereo not shown) [HCQ, hydroxychloroquine]
[1]
  IL-1β secretion: mimicked iberiotoxin in controlling IL-1β secretion

## CC(=O)OCOC(=O)CN(CC(=O)OCOC(C)=O)c1ccccc1OCCOc1ccccc1N(CC(=O)OCOC(C)=O)CC(=O)OCOC(C)=O [BAPTA-AM]
[1]
  IL-1β secretion: completely blocked IL-1β secretion

## iberiotoxin: BKCa KCa1.1 specific inhibitor (QFTDVDCSVSKECWSVCKDLFGVDRGKCMGKKCRCYQ; UniProt P24663 1-37, looked up)
[1]
  IL-1β secretion: blocked IL-1beta secretion

## COC(=O)C1=C(C)NC(C)=C([N+](=O)[O-])C1c1ccccc1C(F)(F)F (stereo not shown) [BAY K8644, Methyl 2,6-dimethyl-5-nitro-4-[2-(trifluoromethyl)phenyl]-1,4-dihydropyridine-3-carboxylate]
[2]; 0, 5 or 10 uM in normal medium, Na-free buffer signal subtracted
  TORID activity versus BAY K8644 concentration: dose proportional response
[2]; CHO cells transfected with TORID and Tmem176a, 30 min incubation, vs control
  TORID activity (ANG-2 mean fluorescent intensity): inhibits TORID activity
[3]
  disease-free survival rates: increased
[4]
  overall rates of survival vs negative control group not injected: higher
  survival rate in caspase 1/11 KO vs caspase 1/11 active mice: lowered the survival rate
[5]
  rate of survival: higher rate of survival

## Cbz-WEHD-CH2F
[1]; BMDCs primed with LPS 3 hours, then nigericin, ATP or aluminum, caspase 1 inhibition
  IL-1β levels in culture supernatant: lower levels of IL-1β
